According to patent US20140099354A1, “BIOPASSIVATING MEMBRANE STABILIZATION BY MEANS OF NITROCARBOXYLIC ACID-CONTAINING PHOSPHOLIPIDS IN PREPARATIONS AND COATINGS” (priority 2011, published 2014):

Columns and labels:
[1] = Tissue response to coated silicone implants in vivo after bleomycin; design: species or system Wistar rats; details: silicone cushions, subcutaneous, 7 to 90 days
Protocol: Induction of fibrotic tissue production by connective tissue activation as a consequence of implantation of foreign material was examined in an in-vivo animal model. As implant materials, sterile silicone cushions having a diameter of 1 cm were used.
In male Wistar rats (190-240 g) that were fed and housed under identical conditions for one week, general anaesthesia was performed by intramuscular injection of 0.008 mL/100 g ketamine and 0.004 mL/100 g xylocaln chloride 2%. Then the back of the animals was shaved, sterilized and infiltrated with xylocalne chloride. A paravertebral incision was made on both sides with a length of 1.5 cm followed by preparation of the subcutaneous tissue, so that on both sides approx. 2×2 cm cavities were preformed. Hemostasis was achieved by cauterization, if necessary. Then balls of cotton saturated with Bleomycin (cell-pharm GmbH, Hannover, Germany: 1% in 0.9% NaCl solution) were inserted into the cavities for 3 minutes and then removed. Without rinsing the cavities, the implants coated with a nitrated phospholipid were inserted into the cavity on the left side and the implants coated with natural phospholipid into the cavity on the right side. Thereafter, a layer by layer wound closure was performed and a sterile adhesive bandage was applied.
The animals were kept according to standard conditions for 7, 14, 30, 60 and 90 days. At any study time endpoint, two animals were euthanized. After death the well visible and palpable implants were removed using en-block resection technique. The resected specimens were fixed and embedded in paraffin. Then they were cut in half and the liquid silicone was removed. The specimens were embedded again and cut into thin slices which were stained with H & E and Sirius red, and evaluated by light microscopy. Evaluation was done according to the following criteria:
A1: none; A2: occasional monocytic cells or lymphocytes; A3: moderate numbers or groups of monocytic cells or lymphocytes; A4: dense infiltration of monocytes, eosinophils, or giant cells.
B1: none; B2: collagen-rich layer around the implant; B3: thick (>1 mm) and dense collagen-rich tissue formation around the implant.
In every 10th serial section 10 fields of view uniformly distributed over the circumference of the implant were evaluated and the herein predominant expression was assigned to an event table. In total, 200 fields of view were analyzed per implant

ovarian tissue strips = test: Cryopreservation of ovarian tissue strips: intact follicles; details: liquid nitrogen 14 days, cultured 14 days
Protocol: Ovar ectomy was performed in female sheep; resected tissues were cut into 60 ovarian tissue strips. The ovarian strips were either cultured directly (n=4) or prepared with a usual solution for vitrification (VS group; Vitrification Kit, Sage, USA) or incubated with nitrated PLs (NPL group). For this purpose, the tissue strips were bathed in an equibrilation solution (ART-8025-A) which consisted of MOPS-buffered amino acids and gentamicin sulfate (10 mg/l), and 7.5% (v/v) of each DMSO and ethylene glycol and 12 mg/ml human serum albumin for 30 minutes. Thereafter the strips of the VS group were placed in the vitrification solution (ART-8025-B), which is a MOPS-buffered solution containing amino acids and gentamicin sulfate, that contain 15% (v/v) each DMSO and ethylenglycol, 12 mg/ml human albumin and 0.6 M sucrose. The strips of the NPL group were placed in a solution containing 25% (v/v) nitrated PL SNOPC or PNLPC in a PBS-buffered 1% DMSO solution containing 5% human albumin for 60 minutes. The treated tissue strips were then immersed into liquid nitrogen and kept here for 14 days. Then removal and warming of the tissue pieces was performed in AIM-V medium (Gibco, Invitrogen) in a sterile culture dish, first up to 5° C. within 20 minutes, then heated further in a water bath up to 37° C., within the following 60 minutes. The culture medium was replaced and specimens cultured for 14 days. After this, the tissue pieces were fixed, embedded in paraffin and cut, followed by histological examination. […] The total number of intact follicles in the control group was taken as a reference to the number of follicles in the cryopreserved groups.
The culture medium has been exchanged by every 2nd day; samples for hormone analysis were taken and frozen at that time. Determination of 17 β-estradiol and progesterone were performed with a radio-immuno assay (diagnostic systems laboratories, USA).

[2] = Abrasion stability and traction work load of coated balloon catheters; type: physicochemical
Protocol: Balloon catheters were coated by means of the Langmuir-Schaefer procedure where the balloon segment was aligned longitudinally and coaxial to the solution surface, dipping into the liquid for approx. 1 mm over the entire length. Then the catheter was slowly rotated around its axis 5 times. Phospholipids were dissolved at a concentration of 3 mmol in an ion-free aqueous solution at 50° C. The solution was cooled and given to the coating solution then. In case of incomplete dissolution of the phospholipids or if they separated when cooled, DMSO was added at a concentration of up to 20 vol.-%, preferably up to 10 vol.-%. After coating, the catheters were vacuum dried for 8 hours in order to remove residual solvent.
The tubing was filled with a 10% human albumin solution at a temperature of 35° C. The cable system, which had previously been brought through the tubing was connected to the catheter tip and tracked outside the tubing by reversing pulleys, which allowed exactly vertically traction of the cable that was connected to a motorized winch. The winch was mounted on a digital precision balance. The catheters mounted in this manner were pulled through the tubing system and the weight changes measured by the balance, which represented the traction work load achieved for the passage of the catheter, was recorded continuously. These readings were integrated over time. The resultant values allow estimation of the total shear force that occurred during the passage of the catheter through the tubing system.

cortical neurons = test: Hypoxia and reperfusion of cortical neurons (viability, LDH); details: neurons and cardiac myocytes; 10 to 50 μmol/l
Protocol: To determine whether the membrane-stabilizing properties of nitrated phospholipids can lead to attenuation of effects due to an ischemic event or the re-perfusion damage, cortical neurons and cardiac myocytes were investigated.
Freshly prepared cortex tissue was separated with Papain and tissue suspensions were cultured in culture vessels (Prim ARA; BD Biosciences, USA) with Neurobasal A/B27 medium (Invitrogen) for 10-12 days. Cell suspensions were divided, and replenished with suspensions of the natural phospholipids SOPC and PLPC, as well as the analogue phospholipids with nitration of unsaturated fatty acids (1-stearoyl-2-(9-nitrooleoyl)-sn-PC and 1-palmitoyl-2-(9-nitrolinoleoyl)-sn-PC) at concentrations of 10 to 50 μmol/l in NaCl (0.9%) were added. […] After 4 hours, the cells were washed three times with buffered saline and buffered NaCl solution with the addition of MgCl2 and CaCl2 in an anaerobic atmosphere (85% N2, 5% O2, 10% CO2; at 35° C.) for 10 and 30 minutes. Then, the cells were washed once and grown in culture medium under aerobic conditions for 24 hours. […] Cells were stained with annexin V-FITC and propidium iodide (Molecular probes, USA). The vital and necrotic cells were measured by flow cytometry (FACSCalibur, Becton & Dickinson). The volume of culture medium was determined and an aliquot was taken for determination of the LDH (lactate dehydrogenase) concentration.

[3] = Transisomerization of unsaturated fatty acids in coatings on balloon catheters (FTIR); type: physicochemical; details: for proportion of trans-fatty acids: after heat treatment (60° C., three hours)
Excerpt: The natural phospholipids POPC and SLPE, as well as the analogous nitrated phospholipids as shown in example C(PNOPC) and […]), as well as the phospholipids according to examples […], and S as a mono substance and as a combination of the native phospholipids and the corresponding nitro-carboxylic acid (s)-containing phospholipids mixed in a ratio of 1:1 were used for this investigation. Balloon catheters were coated by means of the Langmuir-Schaefer procedure where the balloon segment was aligned longitudinally and coaxial to the solution surface, dipping into the liquid for approx. 1 mm over the entire length. Then the catheter was slowly rotated around its axis 5 times. […] The solution was cooled and given to the coating solution then. In case of incomplete dissolution of the phospholipids or if they separated when cooled, DMSO was added at a concentration of up to 20 vol.-%, preferably up to 10 vol.-%. After coating, the catheters were vacuum dried for 8 hours in order to remove residual solvent. The abrasion or loss of coating layers was determined by weighing the catheter before and after coating as well as after the mechanical stability test in the tubing system as described above using a high precision balance. In order to examine the long-term stability of the coating, catheters coated with phospholipids were sealed with polyethylene glycol 1000 (Roth, Germany). For that purpose PEG 1000 was melted and mixed with a 10% ethanol solution at 50° C. A portion of the phospholipid-coated balloon catheter was coated by means of dip-coating in this PEG solution at 50° C., and dried thereafter for 8 hours. Stability of cis-conformity of unsaturated fatty acids of the phospholipids investigated was determined after heat treatment at 60° C. for three hours in a heating cabinet. After 24 hours and after 2 months the phospholipids coated on the balloon surface were detached and analyzed. Detachment was carried out in 50 ml of a chloroform:methanol mixture (3:1, v: v). A 10 μl aliquot was used for a FTIR spectroscopy. For this purpose the samples were dropped on a ZnSe ATR crystal and then the solvent was evaporated. Degree of transisomerization was determined using the integral of intensity of proton resonance in comparison to that measured from a cis configuration of the reference substances. Measurements were performed 24 hours after coating, heat treatment and after 2 months of storage at 25° C. under sterile room air conditions.

sciatic nerve = test: Viability of cryopreserved nerve grafts (Annexin-V staining, FACS); type: cell-based, rats; details: 100 mmolar solution 1 hour, −30° C. 72 hours
Protocol: The sciatic nerve was prepared and sectured in anesthetized rats. The nerve pieces were freed from connective tissue and divided into 3 parts. Specimens were placed in culture DMEM medium containing low a concentration of glucose (1 g/L) with L-glutamine (PAA, Pasching Austria) for 24 hours. […] Nerve specimens from the same animals that received no pretreatment served as controls. After incubation, the specimens were cultured for 24 hours. In a further control group, specimens were cryopreserved without any pretreatment. The specimens were covered with a sterile gauze pad moistened with culture medium. Thereafter the temperature was gradually cooled to −30° C. After 72 hours, the nerve pieces were gradually rewarmed to 37° C. After this, renewed culturing was done for 48 hours. The nerve pieces were dissected enzymatically then (collagenase A and D, Roche, Mannheim, Germany) followed by a mechanical separation through multiple uptake and release in a glass pipette. The isolated cells were washed and marked with a living/death staining (Annexin-V-Fluos staining Kit, Roche Diagnostics, Mannheim, Germany) and quantified using FACS analysis. The number of living cells identified was set in relation to the total cells count.

TRPV1, 2 and 4, TRPA1 = test: Inducible ion current of TRP receptors in Xenopus oocytes (voltage clamp); type: cell-based, rat; details: 50 mmol/l, 10 and 60 minutes
Protocol: An established in-vitro model of Xenopus oocytes (Dascal N, 1987 The use of Xenopus oocytes. CRC critical reviews in biochemistry 22, 317-387) was used to study the influence of incubation with PL on ion channels regulated by membrane receptors. Defolliculized oocytes were transfected with cRNA (rat) of TRPV1, 2 and 4, as well as of TRPA1, stored in tissue culture plates and incubated in culture medium (ND 96) at 15° C. under constant motion in the incubator for 7 to 10 days.
Induced leakage currents through activation of the TRP receptors was determined by means of double electrode voltage-clamp technique (Ahern G P, Brooks I M, Miyares R L &Wang X B, 2005, Extracellular cations sensitize and gate capsaicin receptor TRPV1 modulating pain signalling. J Neurosci 25, 5109-5116). Ooocytes were probed with borosilicate glass capillaries (Clark) and connected to a feedback amplifier (Gene clamp Amplifier, Axon instruments). The membrane potential of oocytes was clamped to −60 or −90 mV. The presence of a directive […] current was compared to non-transfected controls. The investigations were performed in a miniature organ bath in calcium-free buffered (Hepes, pH 7.3) NaCl solution. The TRPV1 receptor excitation was initiated by rapidly changing of the bath solution against a capsaicin solution (10 μmol). Results of non-pretreated oocytes were used for normative comparison of subsequent measurements of incubatesd cells. Investigations with incubated cells were carried out in the same way for oocytes transfected with the TRPV2, and TRPV4 and TRPA1 receptors, wherein the receptor agonists cannabidiol (10 μmol) and 4α-PDD (4α-phorbol 12,13-didecanoate, 50 μmol) and innamaldehyde (50 μmol) were used instead of capsaicin.

[4] = tested on: HeLa, HUVEC and L929 fibroblast; test: cells; type: cell-based
Protocol: Physiologically occurring phospholipids can be taken up by virtually all cell lines in large quantities. It is known that phospholipids that contain non-physiologically occurring fatty acid residues can cause cell lyses or death. Three cell lines (HeLa, HUVEC and L929 fibroblast) were cultured in a suitable culture medium of 5% FCS at 37° C. and 5% CO2 concentrations to a subconfluent concentration of 1.5×10^5 cells.
SOPC, DOPC, POPC, ONOPC, PNLPC, and the free fatty acids of OA, LA, NOOA, and NOLA were dissolved in 0.5% DMSO. […] Cell cultures were incubated for 24 h and 48 h. Thereafter, the culture medium was removed and the cells washed twice. Following this, cells suspensions were given in four vials to perform the following analysis:
For the determination of viability, phenol red was added to the suspended cells. After 4 h, the medium was renewed and 10 μl of the MTT solution was added. The cells were cultured for 4 hours, and then a 10% SDS solution was pipetted. After 24 h, absorption of formazan crystals was measured at 500 nm using a power wave X (bio-tek instruments, Inc., USA). For the quantitative comparison of toxicity, the EC50 was determined.

[5] = top coating with PEG, after 2 month

With CC/C=C(\C/C=C\C/C=C\CCCCCCCC(=O)O[C@H](COC(=O)CCCCCCC/C=C\C/C=C\CCCCC)COP(=O)([O-])OCC[N+](C)(C)C)[N+](=O)[O-] [Example P12, 1-linoleoyl-2-(E-15-nitro-α-linolenoyl)-sn-3-glycerophosphocholine] as the molecule, how does the “biocompatibility of coated implants compared to natural PLs” value [1] read?
Its value is “improved biocompatibility of implants several-fold”.

And the “rate of intact follicles relative to the control group” value (ovarian tissue strips)?
Its value is 91%.

Which results are given for “1,2-di-(9-nitrolinoleoyl)-sn-3-glycerophosphocholine, 1,2-di-(10-nitrolinoleoyl)-sn-3-glycerophosphocholine, 1-(9-nitrolinoleoyl)-2-(10-nitrolinoleoyl)-sn-3-glycerophosphocholine and 1-(10-nitrolinoleoyl)-2-(9-nitrolinoleoyl)-sn-3-glycerophosphocholine [Example N1]”?
mechanical removal of coating substance and workload to pull the catheter through PTFE tubing [2]: Very similar results; rate of intact follicles relative to the control group (ovarian tissue strips): 93%

Which “mechanical removal of coating substance and workload to pull the catheter through PTFE tubing” value (“mechanical removal” for short) [2] does the source give for CCCCCCCCC(O)C(CCCCCCCC(=O)OC[C@H](COP(=O)([O-])OCC[N+](C)(C)C)OC(=O)CCCCCCCC(C(O)CCCCCCCC)[N+](=O)[O-])[N+](=O)[O-] (some centres unmarked) [Example O1, 1,2-di-(9-nitro-10-hydroxy-stearoyl)-sn-3-glycerophosphocholine] here?
Its value is “Very similar results”.

What about the “results of the hypoxia experiments compared with reference nitrated phospholipids” value (cortical neurons) of the same molecule?
Its value is “slightly worse results”.

What does the source list for CCCCC/C=C\C/C=C(\CCCCCCCC(=O)O[C@H](COC(=O)CCCCCCCCCCCCCCCCC)COP(=O)(O)OCCN)[N+](=O)[O-] [Example R, 1-Stearoyl-2-(E-9-nitrolinoleoyl)-sn-3-glycerophosphatidylethanolamine]?
proportion of trans-fatty acids [3]: 28%; degree of transisomerization ([3]; coatings after 2 months): 32%; degree of transisomerization [3, 5]: 33%; biocompatibility of coated implants compared to natural PLs [1]: improved biocompatibility of implants several-fold; proportion of living cells relative to non-frozen control (sciatic nerve): 75%; proportion of living cells relative to non-frozen control (sciatic nerve; listed as SNLPE): 80%

Which “inducible membrane channel activity of TRP channels” value (TRPV1, 2 and 4, TRPA1) does the source give for CCCCCCCC/C=C(\CCCCCCCC(=O)O[C@H](COC(=O)CCCCCCCCCCCCCCC)COP(=O)([O-])OCC[N+](C)(C)C)[N+](=O)[O-] [Example P8, 1-palmitoyl-2-(E-9-nitrooleoyl)-sn-3-glycerophosphocholine] here?
Its value is “significant decrease of inducible membrane channel activity”.

What about the “rate of intact follicles relative to the control group” value (ovarian tissue strips) of the same molecule?
The value was 96%.

With “1-stearoyl-2-(10-nitrolinoleoyl)-sn-3-glycerophosphocholine and 1-stearoyl-2-(9-nitrolinoleoyl)-sn-3-glycerophosphocholine [Example P2]” as the molecule, how does the “mechanical removal” value [2] read?
The value was “Very similar results”.

And the “biocompatibility of coated implants compared to natural PLs” value [1]?
Its value is “improved biocompatibility of implants several-fold”.

What about the “proportion of living cells relative to non-frozen control” value (sciatic nerve) of the same molecule?
The value was 82%.

What about the “rate of intact follicles relative to the control group” value (ovarian tissue strips) of the same molecule?
Its value is 85%.

For “1-(5,8,11-eicosatrienoyl)-2-(9-nitro-α-linolenoyl)-sn-3-glycerophosphocholine and 1-(5,8,11-eicosatrienoyl)-2-(10-nitro-α-linolenoyl)-sn-3-glycerophosphocholine [Example P5]”, which “mechanical removal” value [2] is on record?
The value was “Very similar results”.

What about the “rate of intact follicles relative to the control group” value (ovarian tissue strips) of the same molecule?
The value was 90%.

What does the source list for CCCCCCCC/C=C(\CCCCCCCC(=O)O[C@H](COC(=O)CCCCCCCCCCCCCCC)COP(=O)([O-])OCC[N+](C)(C)C)[N+](=O)[O-] [Example C, (E)-1-Palmitoyl-2-(9-nitrooleoyl)-sn-3-glycerophosphocholine]?
proportion of trans-fatty acids [3]: 25%; degree of transisomerization ([3]; coatings after 2 months): 30%; degree of transisomerization [3, 5]: 32%; results of the hypoxia experiments compared with reference nitrated phospholipids (cortical neurons): did not show relevant differences

With “1,2-di-(9-nitrolinoleoyl)-sn-3-glycerophosphocholine, 1,2-di-(10-nitrolinoleoyl)-sn-3-glycerophosphocholine, 1-(9-nitrolinoleoyl)-2-(10-nitrolinoleoyl)-sn-3-glycerophosphocholine and 1-(10-nitrolinoleoyl)-2-(9-nitrolinoleoyl)-sn-3-glycerophosphocholine [Example N8]” as the molecule, how does the “biocompatibility of coated implants compared to natural PLs” value [1] read?
Its value is “improved biocompatibility of implants several-fold”.

For CCCCCCCC/C=C(\CCCCCCCC(=O)OC[C@H](COP(=O)(O)O)OC(=O)CCCCCCC/C(=C\CCCCCCCC)[N+](=O)[O-])[N+](=O)[O-] [Example G, 1,2-di-(9-nitrooleoyl)-sn-3-glycerophosphate], which “mechanical removal” value [2] is on record?
The value was “Very similar results”.

What about the “biocompatibility of coated implants compared to natural PLs” value [1] of the same molecule?
Its value is “improved biocompatibility of implants several-fold”.

With CCCCC/C=C\C/C=C\CCCCCCCC(=O)O[C@H](COC(=O)CCCCCCCCCCCCCCCCC)COP(=O)(O)OCCN [SLPE, 1-Stearoyl-2-linoleoyl-sn-3-glycero-phosphatidylethanolamine, reference compound] as the molecule, how does the “proportion of trans-fatty acids” value [3] read?
The value was 86%.

What about the degree of transisomerization ([3]; coatings after 2 months) of the same molecule?
The degree of transisomerization was 98%.

What about the degree of transisomerization [3, 5] of the same molecule?
The degree of transisomerization was 92%.

And the “proportion of living cells relative to non-frozen control” value (sciatic nerve)?
Its value is 15%.

Which “mechanical removal” value [2] does the source give for CCCCCCCCC=C(CCCCCCCC(=O)OC[C@H](COP(=O)(O)OC[C@H](N)C(=O)O)OC(=O)CCCCCCCC(=CCCCCCCCC)[N+](=O)[O-])[N+](=O)[O-] [Example E, 1,2-di-(9-nitrooleoyl)-sn-3-glycerophosphatidylserine] here?
The value was “Very similar results”.

What about the “inducible membrane channel activity of TRP channels” value (TRPV1, 2 and 4, TRPA1) of the same molecule?
The value was “significant decrease of inducible membrane channel activity”.

For CCCCCCCC/C=C\CCCCCCCC(=O)OC[C@H](COP(=O)([O-])OCC[N+](C)(C)C)OC(=O)CCCCCCC/C(=C\CCCCCCCC)[N+](=O)[O-] [Example P15, 1-oleoyl-2-(E-9-nitrooleoyl)-sn-3-glycerophosphocholine], which “total viability (MTT assay)” value [4] is on record?
Its value is 83%.

And the EC50 ([4]; after 48 hours, range over cell lines, read-out: EC50 (MTT assay))?
The EC50 was 0.8 to 5 mM.
